Measurements as given in patent publication US12220440B2, “Drug composition, method for treating infection, disinfecting composition, and drug adjuvant” (priority 2022, dated 2025).
Where two headings read alike, the source gives them in different places.

Legend:
Type in all cases: cell-based
[1] = system: E. coli (colistin-resistant); experiment: MIC, colistin-resistant E. coli clinical isolates, with and without otilonium bromide; conditions: Escherichia coli, Ob alone, read-out: Ob MIC
[2] = system: A. baumannii (colistin-resistant); experiment: MIC, colistin-resistant A. baumannii isolates, with and without otilonium bromide; conditions: Acinetobacter baumannii
[3] = system: S. Typhimurium PY01; experiment: MIC, colistin-susceptible S. Typhimurium, with and without otilonium bromide; conditions: Salmonella enterica, Ob alone, read-out: Ob MIC
[4] = system: E. coli Bw25113; experiment: MIC, colistin-susceptible E. coli, with and without otilonium bromide; conditions: Escherichia coli, Ob alone, read-out: Ob MIC
[5] = system: P. aeruginosa (colistin-susceptible); experiment: MIC, colistin-susceptible P. aeruginosa isolates, with and without otilonium bromide; conditions: Pseudomonas aeruginosa, Ob alone, read-out: Ob MIC
[6] = system: mcr-1-bearing E. coli; experiment: LIVE/DEAD cell viability assay, fluorescence microscopy; conditions: 20 μg/ml of otilonium bromide alone
Procedure: Fluorescence microscopy quantifies the number of live and dead cells and determines the degree of reduction in colistin concentration in the drug combination required for effective eradication of the test organism. […] However, in the presence of 20 μg/ml of otilonium bromide, 4 μg/ml of colistin eradicates >97% of the bacteria.

[7] = system: mcr-1-bearing E. coli J53; experiment: SYTOX Green membrane permeability staining
Source text: SYTOX™ Green (available from ThermoFisher Scientific) staining analysis assesses the membrane permeability of colistin-resistant E. coli before and after treatment with the colistin and otilonium bromide combination. SYTOX Green is a green-fluorescent nucleotide dye used to test membrane permeability and membrane integrity. Green fluorescence is detected by fluorescence spectrometer when bacterial cell integrity is destroyed and membrane permeability increases.

[8] = system: P. aeruginosa PAO1; experiment: Bacterial motility on semisolid agar (migration distance)
Source text: It is believed that flagellar formation and flagellar motor rotation are driven by PMF. To study the effect of otilonium bromide on bacterial motility, P. aeruginosa, whose motility on a semisolid surface is dependent upon a functional flagellum, is reviewed. […] Gramicidin, an ionophore known for acting as PMF dissipater, is the positive control. […] For the experiments in FIG. 6a, P. aeruginosa is inoculated in the center of the semisolid agar containing otilonium bromide at the indicated concentrations, with gramicidin as the positive control. A set of 10 mM CaCl2 and no CaC2 plates are also prepared as indicated.
The migration distance is measured in cm and recorded after the inoculated plates ae incubated. The error bars represent the means and standard deviations (SDs). Statistical analysis is performed using unpaired two-tailed student t-test. .*, p<0.05, **, p<0.005, ***p<0.0005, ****p<0.00005.

Question: `CCCCCCCCOc1ccccc1C(=O)Nc1ccc(C(=O)OCC[N+](C)(CC)CC)cc1.[Br-]` [Ob, Otilonium bromide] was tested. Which MIC ([1]; E. coli 5, colistin-resistant) did it give?
Answer: > 64 µg/mL

Question: What about the MIC ([1]; E. coli 12.12.0487, colistin-resistant) of the same compound?
Answer: > 64 µg/mL

Question: And the MIC ([1]; E. coli 101, colistin-resistant)?
Answer: > 64 µg/mL

Question: What about the MIC ([1]; E. coli 119, colistin-resistant) of the same compound?
Answer: > 64 µg/mL

Question: What about the MIC ([1]; E. coli 812, colistin-resistant) of the same compound?
Answer: > 64 µg/mL

Question: And the MIC ([1]; E. coli 2016.2.5 1149-1, colistin-resistant)?
Answer: > 64 µg/mL

Question: And the MIC ([1]; E. coli 34650, colistin-resistant)?
Answer: > 64 µg/mL

Question: And the MIC ([1]; E. coli CX48, colistin-resistant)?
Answer: > 64 µg/mL

Question: What about the MIC ([1]; E. coli CX53, colistin-resistant) of the same compound?
Answer: > 64 µg/mL

Question: And the MIC ([1]; E. coli CX116, colistin-resistant)?
Answer: > 64 µg/mL

Question: What about the MIC ([1]; E. coli WZ2431, colistin-resistant) of the same compound?
Answer: > 64 µg/mL

Question: And the MIC ([1]; E. coli WZ2909, colistin-resistant)?
Answer: > 64 µg/mL

Question: What about the MIC ([1]; E. coli WZ3903, colistin-resistant) of the same compound?
Answer: > 64 µg/mL

Question: And the MIC ([1]; E. coli WZ3906, colistin-resistant)?
Answer: > 64 µg/mL

Question: And the MIC ([1]; E. coli WZ3920, colistin-resistant)?
Answer: > 64 µg/mL

Question: And the MIC ([1]; E. coli WZ3951, colistin-resistant)?
Answer: > 64 µg/mL

Question: What about the MIC ([1]; E. coli WZ3955, colistin-resistant) of the same compound?
Answer: > 64 µg/mL

Question: What about the MIC ([1]; E. coli X2169, colistin-resistant) of the same compound?
Answer: > 64 µg/mL

Question: And the MIC ([2]; ATCC17978, read-out: Ob MIC)?
Answer: 20 µg/mL

Question: What about the MIC ([2]; read-out: Ob MIC, A. baumannii ABJZ-45, colistin-resistant, Ob alone) of the same compound?
Answer: 20 µg/mL

Question: What about the MIC ([2]; read-out: Ob MIC, A. baumannii ABJZ-46, colistin-resistant, Ob alone) of the same compound?
Answer: 20 µg/mL

Question: And the MIC ([2]; read-out: Ob MIC, A. baumannii ABJZ-50, colistin-resistant, Ob alone)?
Answer: 20 µg/mL

Question: What about the MIC [3] of the same compound?
Answer: > 64 µg/mL

Question: What about the MIC [4] of the same compound?
Answer: > 64 µg/mL

Question: And the MIC ([5]; P. aeruginosa PA01, colistin-susceptible)?
Answer: > 64 µg/mL

Question: What about the MIC ([5]; P. aeruginosa PAER 2011-3010, colistin-susceptible) of the same compound?
Answer: > 64 µg/mL

Question: And the MIC ([5]; P. aeruginosa PAER 2011-3252, colistin-susceptible)?
Answer: > 64 µg/mL

Question: And the MIC ([5]; P. aeruginosa PAER 2012-1527, colistin-susceptible)?
Answer: > 64 µg/mL

Question: What about the MIC ([5]; P. aeruginosa PAERC 10.296, colistin-susceptible) of the same compound?
Answer: > 64 µg/mL

Question: And the MIC ([5]; P. aeruginosa PAERC 11.2309, colistin-susceptible)?
Answer: > 64 µg/mL

Question: What about the MIC ([5]; P. aeruginosa PAERC 11.236, colistin-susceptible) of the same compound?
Answer: > 64 µg/mL

Question: And the MIC ([5]; P. aeruginosa PAERC 11.603, colistin-susceptible)?
Answer: > 64 µg/mL

Question: What about the MIC ([5]; P. aeruginosa PAERC 12.1478, colistin-susceptible) of the same compound?
Answer: > 64 µg/mL

Question: And the “live/dead state of cells” value [6]?
Answer: most or all mcr-1-bearing E. coli strains were alive

Question: And the “SYTOX Green fluorescence (membrane permeability)” value ([7]; each drug individually)?
Answer: significant increase in fluorescence

Question: What about the “ability to enhance membrane permeability, compared with colistin” value ([7]; otilonium bromide by itself) of the same compound?
Answer: significantly lower than colistin

Question: And the “migration distance on semisolid agar” value ([8]; 40 μM otilonium bromide supplemented with 10 mM calcium ions)?
Answer: significant increase in migration distance

Question: What about the “migration distance on semisolid agar” value ([8]; plates containing otilonium bromide, overnight incubation) of the same compound?
Answer: decrease in a dose-dependent manner
